From a melting point compilation (Tetko et al.; mined from patent text by program, amines drawn as free bases though some values may be those of a salt)

For `O=c1oc(-c2ccc(OCc3cccnc3)cc2)cc(O)c1SCCc1ccccc1`, the melting point was 178 to 179 °C. `O=C(CCl)Nc1ccccn1` showed a melting point of 114 to 117 °C. In the case of `CN=CN(C)c1ccccc1C#N`, the melting point is reported as 60 to 63 °C. In the case of `C/C(=C\c1ccc(O)cc1)c1ccc2c(c1)OCC(C)(C)CO2`, the melting point is reported as 70 to 71 °C. `Cn1nc(-c2ccc3ccccc3c2)n(C)c1=S` gave a melting point of 173 to 175 °C. With `CC1=C(Cc2ccc(C(C)C)cc2)C(=O)C2C=CC=CC2C1=O` (centres undefined) the melting point was 64 to 65 °C. `NC(=O)N1C(=O)C(C(=O)c2cccs2)c2cc(Cl)ncc21` (centres undefined) showed a melting point of 252 °C. Work on `COC(=O)c1cnc(S)n1Cc1cc(F)cc(F)c1` yielded a melting point of 177 to 178 °C. Work on `COc1c(Nc2ncc3ccc(-c4ccccc4N(C)S(C)(=O)=O)n3n2)cccc1C1CCN(C)CC1` yielded a melting point of 92 to 101 °C. Work on `COC(=O)c1ccc(CCSC(C)=O)s1` yielded a melting point of 67 to 68 °C. With `CCCc1nc2c(N)nc3ccc(-c4cccc(CO)c4)cc3c2s1` the melting point was 176 to 177 °C. In the case of `CN(C)c1ccc(NC(=O)N(CC2CCCCC2)C[C@H]2CCC[C@H](CN(CC3CCCCC3)C(=O)Nc3ccc(N(C)C)cc3)C2)cc1` (relative stereo), the melting point is reported as 136 to 140 °C. Compound `CCOC(=O)c1ncc2[nH]c3cccc(Cc4ccccc4)c3c2c1COC` has a melting point of 160 to 168 °C. Work on `CC(=O)Nc1cnc(-c2cc(Cl)cc(Cl)c2Cl)c(NC(=O)C(C)C)n1` yielded a melting point of 230 to 232 °C. Work on `Cn1c(=O)oc2cc([N+](=O)[O-])ccc21` yielded a melting point of 183 to 185 °C. For `CCOC(=O)c1cn(CC)c2cc(Cl)c(Br)cc2c1=O`, the melting point was 166 °C. Work on `CC(=O)Nc1ccc(Cn2cnc3c(-c4ccco4)ncnc32)cc1` yielded a melting point of 278 to 280 °C. Work on `Cn1nc(N)c2c(c1=O)OCCNC2Cc1ccccc1` (centres undefined) yielded a melting point of 195 to 196 °C. With `CN(C(N)=O)C1c2ccccc2Oc2ccccc21` the melting point was 199 to 202 °C. `O=C(O)CCC(Cc1ccccc1Cl)(C(=O)C=Cc1c(Cl)cccc1Cl)c1ccccc1` (centres undefined) showed a melting point of 140 to 143 °C. `Cc1cn2ccc(NC(=O)C(F)(F)F)c(I)c2n1` showed a melting point of 168 °C. For `COc1ccc2c(c1)c(CC(=O)OCc1ccc(Cl)cc1)c(C)n2C(=O)c1ccc(Cl)cc1`, the melting point was 113 to 114 °C. Compound `CC#Cc1ccc(C2CCC(C3CCC(CCC)CC3)CC2)cc1` (centres undefined) has a melting point of 82 °C. `CCC(C)(Oc1ccc(OCc2cc(-c3ccc(O)cc3)no2)cc1)C(=O)O` (centres undefined) gave a melting point of 142 to 144 °C. Compound `N#Cc1cccc(NC(=O)NCc2cccc3c2CN(C2CCC(=O)NC2=O)C3=O)c1` (centres undefined) has a melting point of 330 to 333 °C. With `CCCc1nn(CC)c2c(=O)n(CCOc3cccc(OC(C)(C)C(=O)O)c3)c(C)nc12` the melting point was 147 to 149 °C. `CN1CCCCC1CCc1ccccc1NC(=O)c1ccc(N)cc1` (centres undefined) showed a melting point of 147 to 148 °C. In the case of `COc1cc(C=C2C(=O)CCc3cc(OC)c(OC)cc32)c([N+](=O)[O-])cc1OC`, the melting point is reported as 65 to 66 °C. With `CCOP(=O)(OCC)C(O)[C@H](CC1CCCCC1)NC(=O)[C@H](CC(C)C)NC(=O)[C@H](Cc1ccccc1)NC(=O)OC(C)(C)C` (some centres undefined) the melting point was 173 to 175 °C. Work on `CCOC(=O)C1=C(OCC)C(OCC)=NS1(=O)=O` yielded a melting point of 129 to 133 °C. `CCOP(=O)(Cc1ccc(NC(=O)CCc2cnoc2-c2ccc(F)cc2)cc1)OCC` gave a melting point of 134 to 135 °C. `CCCCCCCC(=O)NCc1cccc(-c2ccc(CCC(=O)O)cc2)c1` gave a melting point of 124 to 125 °C. With `O=C(O)c1cc2cc(Cl)c(Cl)cc2nc1N[C@@H](Cc1ccccc1)C(=O)O` the melting point was 141 to 143 °C. Compound `CCN(C)c1ccc2c(c1)CNC2=O` has a melting point of 127 to 129 °C. Work on `N#Cc1nn(-c2c(Cl)cc(C(F)(F)F)cc2Cl)c(N)c1-c1ccccc1` yielded a melting point of 198 to 199 °C. Work on `O=C(Nc1cc(Cl)ncn1)c1ccccc1SSc1ccccc1C(=O)Nc1cc(Cl)ncn1` yielded a melting point of 254 to 256 °C. With `O=C(O)Cc1ccc(OCc2c(Cl)cccc2C(=O)O)cc1` the melting point was 171 to 173 °C. Work on `COc1ccc2[nH]cc(CC3=CCCN(CCCC(=O)c4cccs4)C3)c2c1` yielded a melting point of 140 to 150 °C. Work on `CCOC(=O)CC1(O)C(=O)Nc2ccc(F)cc21` (centres undefined) yielded a melting point of 133 to 135 °C.
